What all share (test): relative viability (nuclei count vs DMSO), 5 days (fraction); higher = more cells survive
Compound in the experiment “Veliparib + Lapatinib”: C[C@]1(c2nc3c(C(N)=O)cccc3[nH]2)CCCN1 [Veliparib] + CS(=O)(=O)CCNCc1ccc(-c2ccc3ncnc(Nc4ccc(OCc5cccc(F)c5)c(Cl)c4)c3c2)o1 [Lapatinib] (partner 2 µM)
Summed up:
(§1)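 Each reported value is a median over duplicate plates. It expresses relative viability: treated-well nuclei count divided by vehicle-well nuclei count. Lung cancer cell lines in 1536-well plates were dosed by pin tool a day after seeding, alone with one drug or with a fixed anchor-drug dose plus five library-drug doses (not always all listed) in √10 steps, and nuclei were counted after 5 days.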

Compound in experiment [1]: COC1=CC=C(C=C1)CN2C=CC3=C2C=C(C=C3)C(=O)NO + C[C@]1(O)C[C@@H](c2nc(-c3ccc4ccc(-c5ccccc5)nc4c3)c3c(N)nccn32)C1 [Linsitinib] (partner 1 µM)
An outline of the steps: as §1

Compound in experiment [2]: COC1=CC=C(C=C1)CN2C=CC3=C2C=C(C=C3)C(=O)NO + Cc1nc(Nc2ncc(C(=O)Nc3c(C)cccc3Cl)s2)cc(N2CCN(CCO)CC2)n1 [Dasatinib] (partner 0.075 µM)
An outline of the steps: as §1

Compound in experiment [3]: COC1=CC=C(C=C1)CN2C=CC3=C2C=C(C=C3)C(=O)NO + Nc1nc2[nH]cc(CCc3ccc(C(=O)N[C@@H](CCC(=O)O)C(=O)O)cc3)c2c(=O)[nH]1 [Pemetrexed] (partner 0.2 µM)
Summed up:
as §1

NCI-H322M: the relative viability came out at 0.722 with Veliparib + Lapatinib (first compound 0.02 µM); 0.602 in the experiment with Veliparib + Lapatinib (first compound 0.06325 µM); 0.629 with Veliparib + Lapatinib (first compound 0.2 µM); 0.61 with Veliparib + Lapatinib (first compound 0.6325 µM); 0.471 in the experiment with Veliparib + Lapatinib (first compound 2 µM); 0.934 in experiment [1] (first compound 0.253 µM). The relative viability in experiment [1] (first compound 0.8 µM) is 0.931; in experiment [1] (first compound 2.53 µM) it was 0.946; in experiment [1] (first compound 8 µM) it was 0.926; in experiment [2] (first compound 0.253 µM), 0.255; in experiment [2] (first compound 0.8 µM), 0.255; in experiment [2] (first compound 2.53 µM), 0.262. Also, the relative viability turned out to be 0.226 in experiment [2] (first compound 8 µM), 0.561 in experiment [3] (first compound 0.8 µM), 0.635 in experiment [3] (first compound 2.53 µM) and 0.609 in experiment [3] (first compound 8 µM).
For HCC-15, the relative viability came out at 0.706 with Veliparib + Lapatinib (first compound 0.02 µM); 0.893 with Veliparib + Lapatinib (first compound 0.06325 µM); 0.779 with Veliparib + Lapatinib (first compound 0.2 µM); 0.849 with Veliparib + Lapatinib (first compound 0.6325 µM); 0.891 with Veliparib + Lapatinib (first compound 2 µM); 0.802 in experiment [1] (first compound 0.08 µM). Besides, the relative viability was determined as 0.877 in experiment [1] (first compound 0.253 µM); 0.887 in experiment [1] (first compound 0.8 µM); 0.968 in experiment [1] (first compound 2.53 µM); 0.915 in experiment [1] (first compound 8 µM); 0.433 in experiment [2] (first compound 0.08 µM); 0.675 in experiment [2] (first compound 0.253 µM). The relative viability in experiment [2] (first compound 0.8 µM) came to 0.65; in experiment [2] (first compound 2.53 µM) it was 0.626; in experiment [2] (first compound 8 µM), 0.586; in experiment [3] (first compound 0.08 µM) it was 0.203; in experiment [3] (first compound 0.253 µM), 0.237; in experiment [3] (first compound 0.8 µM) it was 0.243. The relative viability was 0.234 in experiment [3] (first compound 2.53 µM) and 0.217 in experiment [3] (first compound 8 µM).
Regarding NCI-H1395, the relative viability was determined as 0.76 in the experiment with Veliparib + Lapatinib (first compound 0.06325 µM); 0.874 with Veliparib + Lapatinib (first compound 0.2 µM); 0.716 in the experiment with Veliparib + Lapatinib (first compound 0.6325 µM); 0.83 in the experiment with Veliparib + Lapatinib (first compound 2 µM); 0.773 in experiment [1] (first compound 0.08 µM); 1.28 in experiment [1] (first compound 0.253 µM). Further, the relative viability was 1.11 in experiment [1] (first compound 0.8 µM); 1.08 in experiment [1] (first compound 2.53 µM); 0.918 in experiment [1] (first compound 8 µM); 0.394 in experiment [2] (first compound 0.08 µM); 0.381 in experiment [2] (first compound 0.253 µM); 0.431 in experiment [2] (first compound 0.8 µM). In addition, the relative viability in experiment [2] (first compound 2.53 µM) came out at 0.446; in experiment [2] (first compound 8 µM), 0.35; in experiment [3] (first compound 0.253 µM), 0.788; in experiment [3] (first compound 0.8 µM), 0.913; in experiment [3] (first compound 2.53 µM), 0.91; in experiment [3] (first compound 8 µM), 0.726.
Turning to NCI-H596, the relative viability worked out at 1.14 in the experiment with Veliparib + Lapatinib (first compound 0.02 µM); 0.902 with Veliparib + Lapatinib (first compound 0.06325 µM); 1.01 with Veliparib + Lapatinib (first compound 0.2 µM); 1.19 in the experiment with Veliparib + Lapatinib (first compound 0.6325 µM); 1.01 with Veliparib + Lapatinib (first compound 2 µM); 0.982 in experiment [1] (first compound 0.08 µM). Moreover, the relative viability turned out to be 1.08 in experiment [1] (first compound 0.253 µM); 1.01 in experiment [1] (first compound 0.8 µM); 0.915 in experiment [1] (first compound 2.53 µM); 0.992 in experiment [1] (first compound 8 µM); 0.588 in experiment [2] (first compound 0.08 µM); 0.614 in experiment [2] (first compound 0.253 µM). Also, the relative viability amounted to 0.603 in experiment [2] (first compound 0.8 µM); 0.558 in experiment [2] (first compound 2.53 µM); 0.465 in experiment [2] (first compound 8 µM); 0.42 in experiment [3] (first compound 0.08 µM); 0.501 in experiment [3] (first compound 0.253 µM); 0.5 in experiment [3] (first compound 0.8 µM). Moreover, the relative viability in experiment [3] (first compound 2.53 µM) is 0.469; in experiment [3] (first compound 8 µM), 0.492.

Source of the values: the supplement of paper PMC10307832.
